Experimental data taken from EP0098615A1, “1-Oxadethiacephalosporin compound and antibacterial agent containing the same” (MEIJI SEIKA KAISHA LTD., priority 1982, dated 1984).
In brackets after ≈: the same amount, converted by molar mass. Where two headings read alike, the source gives them in different places.

Key:
[1] = test system: Salmonella typhimurium LT-2; experiment: MIC by serial dilution method on agar plates; type: cell-based; conditions: Salmonella enterica, read-out: Minimum inhibitory concentrations (MIC.)
[2] = test system: Escherichia coli NIHJ JC-2; experiment: MIC by serial dilution method on agar plates; type: cell-based
[3] = test system: Staphylococcus aureus Smith; experiment: MIC by serial dilution method on agar plates; type: cell-based; conditions: read-out: Minimum inhibitory concentrations (MIC.)
[4] = test system: Proteus mirabilis GN 79; experiment: MIC by serial dilution method on agar plates; type: cell-based
[5] = test system: Staphylococcus aureus 209P JC-1; experiment: MIC by serial dilution method on agar plates; type: cell-based; conditions: read-out: Minimum inhibitory concentrations (MIC.)
[6] = test system: Klebsiella pneumoniae PCI 602; experiment: MIC by serial dilution method on agar plates; type: cell-based
[7] = test system: Protues rettgeri GN 624; experiment: MIC by serial dilution method on agar plates; type: cell-based; conditions: read-out: Minimum inhibitory concentrations (MIC.)
[8] = test system: Serratia marcescens No. 2; experiment: MIC by serial dilution method on agar plates; type: cell-based
[9] = test system: Proteus vulgaris GN 76; experiment: MIC by serial dilution method on agar plates; type: cell-based
[10] = test system: Escherichia coli No. 29; experiment: Curative effect of oral administration in infected mice (survival); type: in vivo; conditions: three mice in each group, i.p. inoculum 3.25 x 10^5 CFU/mouse, 7 days observation
Text: Thus, some tests were made to evaluate the curative effects of the new compound of this invention in therapeutic treatment of bacterial infections when the new compound was orally given to mice (average body weight 20 g) which had been infected with Escherichia coli No. 29. In these tests for therapeutic treatment of the bacterial infection, mice (three mice in each group) were inoculated intraperitoneally with Escherichia coli No. 29 at an inoculum dose of 3.25 x 10^5 CFU/mouse and then immediately treated by oral administration of the test compound. For the subsequent 7 days, the mice were kept under observation and the number of surviving mice was counted.

[11] = Salmonella typhimurium LT-2, serial dilution on agar plates
[12] = NIHJJC2, Escherichia coli NIHJ JC-2, serial dilution on agar plates, read-out: Minimum inhibitory concentrations (MIC.)
[13] = Staphylococcus aureus Smith, serial dilution on agar plates
[14] = GN79, Proteus mirabilis GN 79, serial dilution on agar plates, read-out: Minimum inhibitory concentrations (MIC.)
[15] = Staphylococcus aureus 209P JC-1, serial dilution on agar plates
[16] = PCI602, Klebsiella pneumoniae PCI 602, serial dilution on agar plates, read-out: Minimum inhibitory concentrations (MIC.)
[17] = Protues rettgeri GN 624, serial dilution on agar plates
[18] = Serratia marcescens No. 2, serial dilution on agar plates, read-out: Minimum inhibitory concentrations (MIC.)
[19] = GN76, Proteus vulgaris GN 76, serial dilution on agar plates, read-out: Minimum inhibitory concentrations (MIC.)

MIC [1, 11] | MIC [2, 12] | MIC [3, 13] | MIC [4, 14] | MIC [5, 15] | MIC [6, 16] | MIC [7, 17] | MIC [8, 18] | MIC [9, 19] | SMILES | number of surviving mice ([10]; 0.1 mg/mouse oral) | number of surviving mice ([10]; 1 mg/mouse oral) | number of surviving mice ([10]; 5 mg/mouse oral) | number of surviving mice ([10]; 10 mg/mouse oral) | also measured
0.78 µg/mL (≈ 1.96 µM) | 0.78 µg/mL (≈ 1.96 µM) | 0.39 µg/mL (≈ 0.979 µM) | 6.25 µg/mL (≈ 15.7 µM) | 0.2 µg/mL (≈ 0.502 µM) | 0.78 µg/mL (≈ 1.96 µM) | 3.13 µg/mL (≈ 7.86 µM) | 3.13 µg/mL (≈ 7.86 µM) | 50 µg/mL (≈ 125 µM) | CSC1=C(C(=O)O)N2C(=O)C(NC(=O)C(C(=O)O)c3cccs3)C2OC1 (centres unmarked) [Example 3(b), 7-[2-(2-thienyl)-2-carboxyacetamide]-1-oxa-1-dethia-3-methylthio-3-cephem-4-carboxylic acid] |  |  |  |  | 
1.56 µg/mL (≈ 4.4 µM) | 6.25 µg/mL (≈ 17.6 µM) | 0.2 µg/mL (≈ 0.564 µM) | 25 µg/mL (≈ 70.5 µM) | 0.2 µg/mL (≈ 0.564 µM) | 1.56 µg/mL (≈ 4.4 µM) | > 100 µg/mL | > 100 µg/mL | > 100 µg/mL | CSC1=C(C(=O)O)N2C(=O)C(NC(=O)Cc3cccs3)C2OC1 (centres unmarked) [Example 1(b), 7-(2-thienylacetamido)-1-oxa-1-dethia-3-methylthio-3-cephem-4-carboxylic acid] |  |  |  |  | 
0.2 µg/mL (≈ 0.502 µM) | 0.78 µg/mL (≈ 1.96 µM) | 3.13 µg/mL (≈ 7.86 µM) | 1.56 µg/mL (≈ 3.92 µM) | 1.56 µg/mL (≈ 3.92 µM) | 0.39 µg/mL (≈ 0.979 µM) | 1.56 µg/mL (≈ 3.92 µM) | 0.39 µg/mL (≈ 0.979 µM) | 50 µg/mL (≈ 125 µM) | CSC1=C(C(=O)O)N2C(=O)C(NC(=O)C(C(=O)O)c3ccsc3)C2OC1 (centres unmarked) [Example 4(b), 7-[2-(3-thienyl)-2-carboxyacetamido]-1-oxa-1-dethia-3-methylthio-3-cephem-4-carboxylic acid] |  |  |  |  | 

Second part, the compound before the results:

SMILES | MIC [1, 11] | MIC [2, 12] | MIC [3, 13] | MIC [4, 14] | MIC [5, 15] | MIC [6, 16] | MIC [7, 17] | MIC [8, 18] | MIC [9, 19] | number of surviving mice ([10]; 0.1 mg/mouse oral) | number of surviving mice ([10]; 1 mg/mouse oral) | number of surviving mice ([10]; 5 mg/mouse oral) | number of surviving mice ([10]; 10 mg/mouse oral) | also measured
COC1=C(C(=O)O)N2C(=O)[C@@H](NC(=O)[C@H](N)C3=CCC=CC3)[C@H]2SC1 [Cefroxadine, reference compound] | 6.25 µg/mL (≈ 17.1 µM) | 3.13 µg/mL (≈ 8.57 µM) | 1.56 µg/mL (≈ 4.27 µM) | 50 µg/mL (≈ 137 µM) | 1.56 µg/mL (≈ 4.27 µM) | 3.13 µg/mL (≈ 8.57 µM) | > 100 µg/mL | 100 µg/mL (≈ 274 µM) | > 100 µg/mL | 0 | 0 | 3 | 3 | 
CSC1=C(C(=O)O)N2C(=O)C(NC(=O)Cc3ccsc3)C2OC1 (centres unmarked) [Example 2(b), 7-(3-thienylacetamido)-1-oxa-1-dethia-3-methylthio-3-cephem-4-carboxylic acid] | 1.56 µg/mL (≈ 4.4 µM) | 6.25 µg/mL (≈ 17.6 µM) | 0.1 µg/mL (≈ 0.282 µM) | 25 µg/mL (≈ 70.5 µM) | 0.05 µg/mL (≈ 0.141 µM) | 1.56 µg/mL (≈ 4.4 µM) | > 100 µg/mL | > 100 µg/mL | > 100 µg/mL |  |  |  |  | 
CO/N=C(\C(=O)NC1C(=O)N2C(C(=O)O)=C(SC)COC12)c1csc(N)n1 (centres unmarked) [Example 6(b), 7-[2-(2-amino-4-thiazolyl)-2-methoxy-iminoacetamido]-1-oxa-1-dethia-3-methyl-thio-3-cephem-4-carboxylic acid tri-fluoroacetate] |  |  |  |  |  |  |  |  |  | 1 | 3 | 3 | 3 | MIC ([1]; TYPHIMURIUM): 0.05 µg/mL (≈ 0.121 µM); MIC ([2]; Escherichia coli, NIHJJC2, read-out: Minimum inhibitory concentrations (MIC.)): 0.78 µg/mL (≈ 1.89 µM); MIC ([3]; Staphylococcus aureus): 3.13 µg/mL (≈ 7.57 µM); MIC ([4]; Proteus mirabilis, GN79, read-out: Minimum inhibitory concentrations (MIC.)): 0.39 µg/mL (≈ 0.943 µM); MIC ([5]; Staphylococcus aureus, 209P): 1.56 µg/mL (≈ 3.77 µM); MIC ([6]; Klebsiella pneumoniae, PCI602, read-out: Minimum inhibitory concentrations (MIC.)): 0.1 µg/mL (≈ 0.242 µM); MIC [7]: 3.13 µg/mL (≈ 7.57 µM); MIC ([8]; Serratia marcescens, NO.2, read-out: Minimum inhibitory concentrations (MIC.)): 0.78 µg/mL (≈ 1.89 µM); MIC ([9]; Proteus vulgaris, GN76, read-out: Minimum inhibitory concentrations (MIC.)): > 100 µg/mL
